In the OligoGym collection:
Oligonucleotides are written 5' to 3', each unit as a sugar letter and its base; * is a phosphorothioate linkage, no mark a phosphodiester; rarer units and linkages stand in square brackets, end groups in braces. Plain capitals give the bases only. d = 2'-deoxy (DNA); r = 2'-OH (RNA)

Each substance was assayed against UBE2H (assay: reporter assay of Huesken 2005). Details: siRNA.
Note: test concentration or dose not given here.

Compared with “sense rArArArArUrUrArArArGrArGrUrArCrArUrCrCdTdT / antisense rGrGrArUrGrUrArCrUrCrUrUrUrArArUrUrUrUdCdT”, “sense rArArArGrUrUrArGrArGrUrGrGrArCrCrUrArCdTdT / antisense rGrUrArGrGrUrCrCrArCrUrCrUrArArCrUrUrUdCdC” is lower in normalised inhibition (eCFP-eYFP dual reporter): 70.5% for the first, 50% for the second.

First: sense rArArArUrCrUrCrCrArUrCrUrArUrArGrGrArUdTdT / antisense rArUrCrCrUrArUrArGrArUrGrGrArGrArUrUrUdGdA
Second: sense rArArCrArCrCrArUrArUrGrArArGrGrCrGrGrAdTdT / antisense rUrCrCrGrCrCrUrUrCrArUrArUrGrGrUrGrUrUdCdC
The normalised inhibition (eCFP-eYFP dual reporter) of the first is higher: 96.4% for the first, 67.8% for the second.

First: sense rArArCrCrCrCrArUrArGrArUrCrCrUrCrUrCrAdTdT / antisense rUrGrArGrArGrGrArUrCrUrArUrGrGrGrGrUrUdAdG
Second: sense rArArGrUrUrArGrArGrUrGrGrArCrCrUrArCrCdTdT / antisense rGrGrUrArGrGrUrCrCrArCrUrCrUrArArCrUrUdTdC
The normalised inhibition (eCFP-eYFP dual reporter) of the first is lower: 49.4% for the first, 64.2% for the second.

First: sense rArArUrArUrArUrUrUrGrArGrUrCrCrUrUrCrCdTdT / antisense rGrGrArArGrGrArCrUrCrArArArUrArUrArUrUdGdG
Second: sense rArCrArGrCrUrCrUrCrUrArUrGrArUrCrUrUrAdTdT / antisense rUrArArGrArUrCrArUrArGrArGrArGrCrUrGrUdCdC
The normalised inhibition (eCFP-eYFP dual reporter) of the first is lower: 41.6% for the first, 95.8% for the second.

First: sense rArCrGrCrCrArCrGrGrArGrGrArGrGrCrGrCrUdTdT / antisense rArGrCrGrCrCrUrCrCrUrCrCrGrUrGrGrCrGrUdAdT
Second: sense rArCrUrUrGrGrArCrArGrCrUrCrUrCrUrArUrGdTdT / antisense rCrArUrArGrArGrArGrCrUrGrUrCrCrArArGrUdTdT
The normalised inhibition (eCFP-eYFP dual reporter) of the first is lower: 71.9% for the first, 86% for the second.

Going from “sense rArGrArGrGrGrUrArCrCrGrGrGrGrArCrArGrCdTdT / antisense rGrCrUrGrUrCrCrCrCrGrGrUrArCrCrCrUrCrUdTdC” to “sense rArGrGrArArCrUrGrUrGrUrGrUrCrUrArGrArUdTdT / antisense rArUrCrUrArGrArCrArCrArCrArGrUrUrCrCrUdGdA”, the normalised inhibition (eCFP-eYFP dual reporter) rises from 65% to 100%.

Compared with “sense rArGrGrGrUrArCrCrGrGrGrGrArCrArGrCrUrCdTdT / antisense rGrArGrCrUrGrUrCrCrCrCrGrGrUrArCrCrCrUdCdT”, “sense rArGrGrUrUrArCrGrArUrCrCrUrGrGrGrArGrGdTdT / antisense rCrCrUrCrCrCrArGrGrArUrCrGrUrArArCrCrUdCdA” is higher in normalised inhibition (eCFP-eYFP dual reporter): 77.2% for the first, 84.1% for the second.

First: sense rArGrUrGrArArGrUrUrUrUrArUrGrGrArCrCrAdTdT / antisense rUrGrGrUrCrCrArUrArArArArCrUrUrCrArCrUdAdC
Second: sense rArGrUrGrGrArCrCrUrArCrCrUrGrArUrArArAdTdT / antisense rUrUrUrArUrCrArGrGrUrArGrGrUrCrCrArCrUdCdT
The normalised inhibition (eCFP-eYFP dual reporter) of the first is lower: 95.5% for the first, 108% for the second.

Compared with “sense rArUrArCrCrCrUrUrUrCrArArArUrCrUrCrCrAdTdT / antisense rUrGrGrArGrArUrUrUrGrArArArGrGrGrUrArUdTdT”, “sense rArUrArGrGrArUrUrCrArUrGrArArUrArArArAdTdT / antisense rUrUrUrUrArUrUrCrArUrGrArArUrCrCrUrArUdAdG” is higher in normalised inhibition (eCFP-eYFP dual reporter): 99.2% for the first, 106% for the second.

Going from “sense rArUrCrGrArGrArGrUrArArArCrArUrGrArGrGdTdT / antisense rCrCrUrCrArUrGrUrUrUrArCrUrCrUrCrGrArUdGdA” to “sense rArUrCrUrArUrArGrGrArUrUrCrArUrGrArArUdTdT / antisense rArUrUrCrArUrGrArArUrCrCrUrArUrArGrArUdGdG”, the normalised inhibition (eCFP-eYFP dual reporter) rises from 71.1% to 95.3%.

First: sense rArUrGrArGrGrUrUrArCrGrArUrCrCrUrGrGrGdTdT / antisense rCrCrCrArGrGrArUrCrGrUrArArCrCrUrCrArUdGdT
Second: sense rArUrGrGrArCrCrArCrArArGrGrArArCrArCrCdTdT / antisense rGrGrUrGrUrUrCrCrUrUrGrUrGrGrUrCrCrArUdAdA
The normalised inhibition (eCFP-eYFP dual reporter) of the first is higher: 77.7% for the first, 34% for the second.

The substances below were run against UFC1 (assay: reporter assay of Huesken 2005). Details: siRNA.

First: sense rGrArCrArGrCrArArArGrArUrGrUrArCrArGrGdTdT / antisense rCrCrUrGrUrArCrArUrCrUrUrUrGrCrUrGrUrCdTdT
Second: sense rGrArCrGrGrArUrCrArUrUrUrCrArArArCrCrUdTdT / antisense rArGrGrUrUrUrGrArArArUrGrArUrCrCrGrUrCdAdG
The normalised inhibition (eCFP-eYFP dual reporter) of the first is lower: 50.1% for the first, 123% for the second.

Compared with “sense rGrArUrCrArUrUrUrCrArArArCrCrUrUrUrGrUdTdT / antisense rArCrArArArGrGrUrUrUrGrArArArUrGrArUrCdCdG”, “sense rGrCrArArArGrArUrGrUrArCrArGrGrGrGrUrGdTdT / antisense rCrArCrCrCrCrUrGrUrArCrArUrCrUrUrUrGrCdTdG” is higher in normalised inhibition (eCFP-eYFP dual reporter): 98.8% for the first, 108% for the second.

First: sense rGrCrArGrUrUrCrCrUrGrArGrCrUrGrGrArUrGdTdT / antisense rCrArUrCrCrArGrCrUrCrArGrGrArArCrUrGrCdAdA
Second: sense rGrCrCrArGrGrArArUrGrUrGrCrCrCrArArArUdTdT / antisense rArUrUrUrGrGrGrCrArCrArUrUrCrCrUrGrGrCdCdC
The normalised inhibition (eCFP-eYFP dual reporter) of the first is higher: 80.1% for the first, 77.2% for the second.

Compared with “sense rGrCrCrCrCrArGrArArArUrUrGrCrArGrUrUrCdTdT / antisense rGrArArCrUrGrCrArArUrUrUrCrUrGrGrGrGrCdAdG”, “sense rGrCrCrUrGrArCrGrGrArUrCrArUrUrUrCrArAdTdT / antisense rUrUrGrArArArUrGrArUrCrCrGrUrCrArGrGrCdAdT” is higher in normalised inhibition (eCFP-eYFP dual reporter): 61.7% for the first, 117% for the second.

First: sense rGrCrGrArCrUrGrArArGrGrArGrGrArArUrArUdTdT / antisense rArUrArUrUrCrCrUrCrCrUrUrCrArGrUrCrGrCdTdG
Second: sense rGrCrUrGrArCrArArCrGrArUrUrGrGrUrUrCrCdTdT / antisense rGrGrArArCrCrArArUrCrGrUrUrGrUrCrArGrCdAdT
The normalised inhibition (eCFP-eYFP dual reporter) of the first is higher: 107% for the first, 78% for the second.

Going from “sense rGrCrUrGrGrCrArGrUrGrGrArArArUrCrCrCrUdTdT / antisense rArGrGrGrArUrUrUrCrCrArCrUrGrCrCrArGrCdCdA” to “sense rGrGrArCrUrArGrCrUrCrArUrCrUrCrArUrGrGdTdT / antisense rCrCrArUrGrArGrArUrGrArGrCrUrArGrUrCrCdAdA”, the normalised inhibition (eCFP-eYFP dual reporter) rises from 48.5% to 61.7%.

Compared with “sense rGrGrArUrGrGrArArArGrArCrArGrCrArArArGdTdT / antisense rCrUrUrUrGrCrUrGrUrCrUrUrUrCrCrArUrCrCdAdG”, “sense rGrGrCrArArArArUrArUrGrCrCrUrGrArCrGrGdTdT / antisense rCrCrGrUrCrArGrGrCrArUrArUrUrUrUrGrCrCdAdC” is lower in normalised inhibition (eCFP-eYFP dual reporter): 103% for the first, 99.9% for the second.

Going from “sense rGrGrCrUrCrUrGrGrGrGrCrUrGrGrGrUrCrCrAdTdT / antisense rUrGrGrArCrCrCrArGrCrCrCrCrArGrArGrCrCdAdT” to “sense rGrGrGrUrGrCrArGrCrGrArCrUrGrArArGrGrAdTdT / antisense rUrCrCrUrUrCrArGrUrCrGrCrUrGrCrArCrCrCdAdC”, the normalised inhibition (eCFP-eYFP dual reporter) rises from 69.9% to 85.9%.

Going from “sense rGrUrArUrArUrCrCrArUrGrArCrCrUrCrCrUrGdTdT / antisense rCrArGrGrArGrGrUrCrArUrGrGrArUrArUrArCdCdA” to “sense rGrUrGrGrArGrArArCrArArCrArArGrArArUrGdTdT / antisense rCrArUrUrCrUrUrGrUrUrGrUrUrCrUrCrCrArCdAdT”, the normalised inhibition (eCFP-eYFP dual reporter) falls from 96% to 68.9%.

Compared with “sense rUrArCrUrGrCrCrCrCrArGrArArArUrUrGrCrAdTdT / antisense rUrGrCrArArUrUrUrCrUrGrGrGrGrCrArGrUrAdGdT”, “sense rUrCrArGrUrCrCrCrUrUrArUrCrCrGrGrUrArUdTdT / antisense rArUrArCrCrGrGrArUrArArGrGrGrArCrUrGrAdTdA” is higher in normalised inhibition (eCFP-eYFP dual reporter): 52.2% for the first, 88.9% for the second.

Compared with “sense rUrCrArUrCrCrArArCrArCrArArArGrArGrArAdTdT / antisense rUrUrCrUrCrUrUrUrGrUrGrUrUrGrGrArUrGrAdCdG”, “sense rUrGrArArArUrArUrGrArGrUrUrUrGrArCrArUdTdT / antisense rArUrGrUrCrArArArCrUrCrArUrArUrUrUrCrAdGdG” is lower in normalised inhibition (eCFP-eYFP dual reporter): 93% for the first, 75.3% for the second.

Going from “sense rUrGrArCrArArCrGrArUrUrGrGrUrUrCrCrGrAdTdT / antisense rUrCrGrGrArArCrCrArArUrCrGrUrUrGrUrCrAdGdC” to “sense rUrGrArCrArUrUrCrCrUrArUrCrArCrArUrArUdTdT / antisense rArUrArUrGrUrGrArUrArGrGrArArUrGrUrCrAdAdA”, the normalised inhibition (eCFP-eYFP dual reporter) rises from 76.1% to 115%.

Going from “sense rUrGrCrCrCrCrArGrArArArUrUrGrCrArGrUrUdTdT / antisense rArArCrUrGrCrArArUrUrUrCrUrGrGrGrGrCrAdGdT” to “sense rUrGrGrCrArGrUrGrGrArArArUrCrCrCrUrGrAdTdT / antisense rUrCrArGrGrGrArUrUrUrCrCrArCrUrGrCrCrAdGdC”, the normalised inhibition (eCFP-eYFP dual reporter) rises from 44.9% to 71.4%.

Compared with “sense rUrGrGrGrUrCrCrArUrGrGrCrUrGrGrCrArGrUdTdT / antisense rArCrUrGrCrCrArGrCrCrArUrGrGrArCrCrCrAdGdC”, “sense rUrGrGrUrArUrArUrCrCrArUrGrArCrCrUrCrCdTdT / antisense rGrGrArGrGrUrCrArUrGrGrArUrArUrArCrCrAdGdC” is lower in normalised inhibition (eCFP-eYFP dual reporter): 35.2% for the first, 31.4% for the second.

Compared with “sense rUrGrGrUrUrCrCrGrArCrUrGrGrArGrUrCrCrAdTdT / antisense rUrGrGrArCrUrCrCrArGrUrCrGrGrArArCrCrAdAdT”, “sense rUrUrGrGrArArArArUrGrCrUrGrGrUrArUrArUdTdT / antisense rArUrArUrArCrCrArGrCrArUrUrUrUrCrCrArAdAdC” is lower in normalised inhibition (eCFP-eYFP dual reporter): 71.9% for the first, 56.8% for the second.
